Experimental data taken from PubChem BioAssay AID588845 (Broad Institute, 2011).
Activity calls are given as the source filed them. The rule behind the calls is not given here.

System: HMLE_shTWIST viability, CellTiter-Glo luminescence, 72 h
Assay: cytotoxicity toward TWIST-knockdown HMLE cells – cell-based, CellTiter-Glo luminescence, dry powder, set 2, confirmation (AID 588845)
Details: not given

Question: With `Cc1csc(NC(=O)c2ccc(COc3ccccc3F)o2)n1` as the compound, how does the AC50 read?
Answer: Its AC50 is 0.13 µM.

Question: Which AC50 does the source give for `Cc1csc(NC(=O)c2ccc(COc3cccc(F)c3)o2)n1` here?
Answer: Its AC50 is 1.7 µM.

Question: Which AC50 does the source give for `CCc1ccc(/C=C/C(=O)NC2=NCCS2)cc1` here?
Answer: Its AC50 is 11.7 µM.

Question: Which AC50 does the source give for `Cc1csc(NC(=O)c2ccc(COc3ccccc3)o2)n1` here?
Answer: The AC50 was 18.2 µM.

Question: With `Cc1csc(NC(=O)c2ccc(COc3cccc(Cl)c3)o2)n1` as the compound, how does the AC50 read?
Answer: The AC50 was 4.3 µM.

System: not listed separately
Assay: as above
Details: HMLE_shTWIST viability, CellTiter-Glo luminescence, 72 h; at 32 µM (top of the series)

Question: For `CC(C)c1ccc(/C=C/C(=O)NC2=NCCS2)cc1`, which viability fraction is on record?
Answer: The viability fraction was 8.35% (inactive).

Question: With `O=C(/C=C/c1ccc(-c2ccccc2)cc1)NC1=NCCS1` as the compound, how does the viability fraction read?
Answer: Its viability fraction is 81.4% (inactive).

Question: Which viability fraction does the source give for `COc1ccc(/C=C/C(=O)NC2=NCCS2)c(OC)c1` here?
Answer: Its viability fraction is 58.2% (inactive).

Question: For `O=C(/C=C/c1ccc(Cl)c(Cl)c1)NC1=NCCS1`, which viability fraction is on record?
Answer: The viability fraction was 71.5% (inactive).
